These results are taken from patent US20090214439A1, “Fluorinated Carbohydrates and Their Use in Tumor Visualization, Tissue Engineering, and Cancer Chemotherapy” (Trustees of Tufts College, priority 2006, published 2009).

The test system of assay [1] is K88 (a sub clone of BJA-B). Description: Incorporation of unnatural sialic acids in highly sialylated cells. Type of assay: cell-based, human. The method, then: (§1) To visualize and quantify the sialic acid incorporation on cell surfaces, 1,2-diamino-4,5-methylenedioxybenzene (DMB) was used as a fluorogenic reagent for labeling α-keto acids (FIG. 4). [Hara, S.; Yamaguchi, M.; Takemori, Y.; Furuhata, K.; Ogura, H.; Nakamura, M. “Determination of Mono-O-Acetylated N-Acetylneuraminic Acids in Human and Rat Sera by Fluorometric High-Performance Liquid-Chromatography” Anal. Biochem. 1989, 179, 162-6.] Briefly, the membrane fraction was obtained after incubation with a given compound (200 μM typical, 900 μM maximum) for 3 days. The membrane pellet was then hydrolyzed by use of 2 M AcOH at 80° C. and then allowed them to react with DMB to yield the corresponding quinoxalinone derivatives. The samples were analyzed by HPLC using a fluorescence detector. The retention times (by comparison to an authentic sample) provide information about the identity, LC ESI-MS unambiguously confirms the molecular structure, and integration of the peaks gives quantitative information on the relative amounts of membrane-derived sialic acids.
(§2) Roughly 75% of the total sialic acid (using substrate 5g) on the cell surface was fluorinated using these cell lines.

For a further assay, the system named is HeLa cells. Kind of assay: Cell surface expression of sialic acids, DMB labeling with fluorescence HPLC. Type of assay: cell-based. An excerpt: (§3) Cell Surface Expression of Fluorinated Sialic Acids. […] These experiments assay the overall action of multiple biosynthetic steps downstream of sialic acid, namely activation, processing and attachment to proteins and lipids and finally successful trafficking to the membrane. As mentioned above, six derivatives of mannosamine have been prepared and tested. In order to bypass the most stringent step in sialic acid biosynthetic pathway (ManNAc 6-kinase), fluorinated sialic acids were also prepared for direct use in feeding experiments. Sialic acids were synthesized as described above by enzymatic conversion of mannosamines to the corresponding sialic acids. Fluorine containing sialic acids were fed to Jurkat, HeLa and HL-60 cells in the peracetylated, methyl ester form since Reutter and Bertozzi have independently shown that exogenous addition of sialic acids in this form results in efficient incorporation of a wide range of derivatives. The degree of fluorination on the N-acyl chain was varied from a single terminal trifluoromethyl group to a —C11F17 group.
(§4) To visualize and quantify the sialic acid incorporation on cell surfaces, 1,2-diamino-4,5-methylenedioxybenzene (DMB) was used as a fluorogenic reagent for labeling α-keto acids (FIG. 4). [Hara, S.; Yamaguchi, M.; Takemori, Y.; Furuhata, K.; Ogura, H.; Nakamura, M. “Determination of Mono-O-Acetylated N-Acetylneuraminic Acids in Human and Rat Sera by Fluorometric High-Performance Liquid-Chromatography” Anal. Biochem. 1989, 179, 162-6.] Briefly, the membrane fraction was obtained after incubation with a given compound (200 μM typical, 900 μM maximum) for 3 days. […] The samples were analyzed by HPLC using a fluorescence detector. The retention times (by comparison to an authentic sample) provide information about the identity, LC ESI-MS unambiguously confirms the molecular structure, and integration of the peaks gives quantitative information on the relative amounts of membrane-derived sialic acids.

Assay [2] deals with HL60 cells adhering to fibronectin. Kind of assay: Static adhesion of labeled cells to fibronectin-coated plates. The note with it: HL60 cells incubated 72 h with 200 μM compound; PMA or thapsigargin stimulation; 1 hour adhesion. The class given is cell-based. How it is done:
FIG. 9 depicts (a) adhesion of HL60 cells to plates coated with fibronectin in the presence of thapsigargin (Tg). The cells were incubated with compounds for 72 hours, washed with PBS and then allowed to adhere to plates. After 1 hr, unattached cells were removed by rinsing with PBS and then the number of cells quantified by addition of calcein-AM and fluorescence counting. (b) Similar assay as in (a) but with compounds 4a and 4d (data in (b) is taken from Horstkorte, R.; Rau, K.; Laabs, S.; Danker, K.; Reutter, W. “Biochemical engineering of the N-acyl side chain of sialic acid leads to increased calcium influx from intracellular compartments and promotes differentiation of HL60 cells” FEBS Lett. 2004, 571, 99-102).
Adhesion of Labeled Cells on Collagen and Fibronectin. The ability of cells labeled with fluorinated carbohydrates to adhere to fibronectin and collagen was also investigated. […] To quantify adhesion, 96-well plates were coated with fibronectin or collagen (10 μg/mL in PBS) for 16 hours at 4° C. followed by treatment with 1% BSA for 4 hours to block nonspecific adhesion sites. […] Unattached cells were washed away by rinsing with PBS and the cells were quantified by addition of the fluorogenic esterase substrate calcein-AM and followed by measurement of emission at 520 nm in a microtiter fluorescence plate reader. […]

The subject of assay [3] is BJA-B K20 cells (deficient in UDP-GlcNAc 2-epimerase). Kind of assay: Replacement of Neu5Ac with unnatural sialic acids in hyposialylated cells. Type of assay: cell-based, human. How it is done: as §1
Replacement of Neu5Ac with Unnatural Sialic Acids in Hyposialylated Cells. […] Using these hyposialylated cell lines incorporation of fluorinated precursors was investigated and the overall percentage of sialic acids on cell surfaces that are fluorinated was assessed. […]

Assay [4] relates to HL60-I cells (deficient in UDP-GlcNAc 2-epimerase). The description is as above. Type of assay: cell-based. How it is done:
as §1
Replacement of Neu5Ac with Unnatural Sialic Acids in Hyposialylated Cells. Cell lines HL60-I and BJA-B K20, variants respectively of the parent HL60 and human B-cell lymphoma (BJA-B), are deficient in UDP-GlcNAc 2-epimerase and show a global suppression of sialylation of glycoconjugates, including expressing mostly unsialylated Lewis-X. [Keppler, 0. T.; Hinderlich, S.; Langner, J.; Schwartz-Albiez, R.; Reutter, W.; Pawlita, M. “UDP-GlcNAc 2-epimerase: A regulator of cell surface sialylation” Science 1999, 284, 1372-6.] Using these hyposialylated cell lines incorporation of fluorinated precursors was investigated and the overall percentage of sialic acids on cell surfaces that are fluorinated was assessed. Both HL60-I and BJA-B K20 cell lines served as metabolic hosts for fluorinated sialic acids 5-N-trifluoropropyl-Neu (5e) and 5-N-trifluorobutyl-Neu (5g) (FIG. 8). […] In contrast, untreated cells only contained Neu5Ac. […]

For another assay, the system named is HL60-II cells. Description: Incorporation of unnatural sialic acids in highly sialylated cells. The class given is cell-based. The method, then:
as §1, §2

The test system of assay [5] is cell surfaces (Jurkat, HeLa and HL-60 cells). Kind of assay: Cell surface expression of sialic acids, DMB labeling with fluorescence HPLC (cell line not stated). The class given is cell-based. The note with it: 200 μM typical, 900 μM maximum, 3 days. From the text: Cell Surface Expression of Fluorinated Sialic Acids. […] These experiments assay the overall action of multiple biosynthetic steps downstream of sialic acid, namely activation, processing and attachment to proteins and lipids and finally successful trafficking to the membrane. As mentioned above, six derivatives of mannosamine have been prepared and tested. In order to bypass the most stringent step in sialic acid biosynthetic pathway (ManNAc 6-kinase), fluorinated sialic acids were also prepared for direct use in feeding experiments. Sialic acids were synthesized as described above by enzymatic conversion of mannosamines to the corresponding sialic acids. […]
To visualize and quantify the sialic acid incorporation on cell surfaces, 1,2-diamino-4,5-methylenedioxybenzene (DMB) was used as a fluorogenic reagent for labeling α-keto acids (FIG. 4). […] The samples were analyzed by HPLC using a fluorescence detector. The retention times (by comparison to an authentic sample) provide information about the identity, LC ESI-MS unambiguously confirms the molecular structure, and integration of the peaks gives quantitative information on the relative amounts of membrane-derived sialic acids. […]

Assay [6] deals with HL60 cells adhering to fibronectin. The note with it: HL60 cells cultivated in the presence of the compound; literature data (Villavicencio-Lorini 2002; Horstkorte 2004); cited from earlier work.
The test system of a further assay is Jurkat cells. Kind of assay: Cell surface expression of sialic acids, DMB labeling with fluorescence HPLC. The class given is cell-based. The note with it: DMB conjugates of membrane fraction.
Source text: as §3, §4

In the case of 5-N-trifluorobutyl-Neu [Compound 5g], the “incorporation of the fluorinated sialic acid” value (in assay [1]; in the assay on HL60-II cells) was “readily incorporated” throughout. The “total sialic acid on the cell surface that was fluorinated” value (in assay [1]; with HL60-II cells) was “Roughly 75%” in each case. In addition, the “total sialic acid on the cell surface replaced” value with HeLa cells is 75%. Moreover, the “cell surface incorporation / expression” value with HeLa cells (DMB conjugates of membrane fraction) is “Cell surface expression of 5g”. In assay [2], the “decrease of adhesion to fibronectin compared to untreated cells” value is around 70%. The “incorporation on the cell surface by LC ESI-MS” value in assay [3] and in [4] was “unambiguously confirmed” each time. Also, the “cell surface sialylation coming from exogenously added compound” value in assay [4] (DMB labeling and fluorescence HPLC) is given as around 75%. In addition, the “incorporation on cell surfaces as sialoglycoconjugates” value in assay [5] is “escorted and appended to cellular surfaces”.
`CCC(=O)N[C@@H]1C(O)O[C@H](CO)[C@@H](O)[C@@H]1O` (stereo partly shown) [Compound 4d, N-propanoyl-mannosamine]: the “increase of adhesion to fibronectin” value in assay [6] is “more than 130%”.
For the molecule `O=C(CC(F)(F)F)N[C@H]1[C@H]([C@H](O)[C@H](O)CO)OC(O)(C(=O)O)C[C@@H]1O` (stereo partly shown) [Compound 5e, 5-N-trifluoropropyl-Neu], the “incorporation of the fluorinated sialic acid” value (in assay [1]; in the assay with HL60-II cells) was “readily incorporated” throughout. In addition, the “cell surface incorporation / expression” value with Jurkat cells is on record as “efficiently incorporated”. The “adhesion to fibronectin compared to untreated cells” value in assay [2] was “decreased”. Besides, the “incorporation on the cell surface by LC ESI-MS” value in [3] and in [4] was “unambiguously confirmed” each time. In assay [5], the “incorporation on cell surfaces as sialoglycoconjugates” value is “escorted and appended to cellular surfaces”.
